Experimental data as given in article PMC6345968, “Structural basis for species-selective targeting of Hsp90 in a pathogenic fungus” (Nature Communications, 2019).
pIC50, pKi: −log10 of the molar value. “And” between values parts separate entries of the source, which are not always exact repeats. Identical values can stand only once.

Assays:
human Hsp90 NBD = human Hsp90 NBD (Homo sapiens, UniProt P08238); assay: biochemical
Raw264.7 macrophages = assay: Phagocytosis of GFP C. albicans by macrophages, flow cytometry; type: cell-based, mouse; details: 2 h pre-treatment
Procedure: Compromise of host immune function and other target-related toxicities preclude the use of non-species-selective Hsp90 inhibitors in the treatment of fungal infections. Host defense against invasive infection relies heavily on the ingestion and destruction of C. albicans by innate immune cells, such as macrophages. […] After an additional two hours, phagocytosis of the fluorescently labeled fungi was measured by flow cytometry. […] This Hsp90-dependent morphogenetic program has an important role in the organism’s virulence and interactions with host immune effectors such as macrophages.
The ingestion of GFP-marked C. albicans CaCi-2 (CaLC867, Table S4) by mouse macrophages was monitored using flow cytometry. Raw264.7 macrophage cultures were pre-treated with various concentrations of Hsp90 inhibitors for 2 h at 37 °C and then infected with fungus at a multiplicity of infection of ~2 for an additional 2 h. Wells were harvested by trypsinization and resultant cell suspensions incubated with Guava ViaCount reagent per manufacturer’s recommendation (Millipore Sigma, Cat #4000-0040). Red fluorescent signal was used to identify macrophages while green fluorescent signal identified the fungus. Dual positive (red and green) events with appropriate forward- and side-scatter parameters were quantitated as representative of ingestion of fungus by a macrophage. […]

human Hsp90 NBD, sequence (P08238 1-223): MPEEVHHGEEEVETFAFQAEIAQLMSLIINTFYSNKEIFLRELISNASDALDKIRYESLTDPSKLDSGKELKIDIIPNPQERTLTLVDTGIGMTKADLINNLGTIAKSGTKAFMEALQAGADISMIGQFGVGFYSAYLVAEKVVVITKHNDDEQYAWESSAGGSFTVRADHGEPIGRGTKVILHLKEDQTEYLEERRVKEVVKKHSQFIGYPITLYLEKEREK

With `COc1ccc(CON=C2C=CC=CC3OC3CC(C)OC(=O)c3c(O)cc(O)cc3C2)cc1` (stereo not drawn) [CMLD013075] as the compound, how does the pIC50 (human Hsp90 NBD; I50, single experiments Expt 1-3) read?
The pIC50 was 5.78 and 5.79 and 5.90.

What about the pIC50 (human Hsp90 NBD; IC50 (Equation 16), corrected I50, single experiments, unit inferred) of the same compound?
Its pIC50 is 5.78 and 5.79 and 5.91.

And the pKi (human Hsp90 NBD; Inhibitor Ki, single experiments Expt 1-3)?
The pKi was 6.62 and 6.63 and 6.74.

And the pKi (human Hsp90 NBD; Ki, purified NBD, Cy3-GdA probe, mean (± SEM) of 3 experiments)?
Its pKi is 6.66.

What about the “effect on engulfment of C. albicans” value (Raw264.7 macrophages) of the same compound?
The value was “Neither compound impaired engulfment”.

And the heat-shock reporter activation (293T reporter cells)?
The heat-shock reporter activation was “activation required much higher concentrations”.
